Here are results for four compounds from patent US5043166A, “Liposome/anthraquinone drug composition and method” (priority 1989, dated 1991).

Data set [1] can be described thus: peroxidation in liposomes with chelators. Format: physicochemical.
The conditions of data set [2]: in vivo; cited from earlier work.
The conditions of data set [3]: Co^2+; cited from earlier work.
For data set [4] the following is noted: Ni^2+; cited from earlier work.
The conditions of data set [5]: Zn^2+; cited from earlier work.
Data set [6] is described as follows: chemical modification of DXR in stored liposomes. Format: physicochemical. The settings on record: stored anoxic 1 day at 4° C. The protocol:
The liposomes were stored under anoxic conditions for 1 day at 4° C., as above. Chemical modification of the drug was detected both by fluorescence emission spectroscopy and by assaying the change in drug toward a more lipophilic species, as described in Section A above.

The conditions of data set [7]: Ca^2+; cited from earlier work.
For data set [8] the following is noted: Fe^2+; cited from earlier work.
For data set [9] the following is noted: Mg^2+; cited from earlier work.
The conditions of data set [10]: Fe^3+; cited from earlier work.
For data set [11] the following is noted: Cu^2+; cited from earlier work.
For data set [12] the following is noted: prior to or concurrent with DXR administration; cited from earlier work.

Read-outs that look alike come from different tables or passages of the source.

For the compound `O=C(O)CN(CCN(CC(=O)O)CC(=O)O)CC(=O)O` [EDTA, ethylenediaminetetraacetic acid], the “effect on peroxidation damage in liposomes” value in data set [1] is recorded as “peroxidation-stimulating effect”.
With `CC(=O)N(O)CCCCCNC(=O)CCC(=O)N(O)CCCCCNC(=O)CCC(=O)N(O)CCCCCN` [ferrioxamine, ferrioxamine B], the “safety for parenteral use in humans” value in data set [2] is “proven safe for parenteral use in humans”. For the same compound, the “Binding Affinity” value in [3] was 10^11; in data set [4] it was 10^10; in data set [5] it was 10^11; in [7], 10^2; in data set [8], 10^10; in [9], 10^4. Moreover, the “Binding Affinity” value in data set [10] is 10^31; in [11], 10^14. Also, the “protection against drug modification” value in data set [6] is “moderate protections”.
As to `Cc1c(C)c2c(c(C)c1O)CCC(C)(CCCC(C)CCCC(C)CCCC(C)C)O2` (stereo not drawn) [α-T, alpha-tocopherol], the “protection against drug modification” value in [6] is “moderate protections”. Further, in [12], the reduction of cardiotoxicity entry is listed as “effective in reducing cardiotoxicity”.
`O=C(O)CN(CCN(CC(=O)O)CC(=O)O)CCN(CC(=O)O)CC(=O)O` [DTPA]: the “effect on anthraquinone modification in vitro” value in data set [1] (in the presence of lipids and ferric iron) was “protective effect”.
